Measured values as given in paper PMC6150412, “Design, Synthesis, and Evaluation of Novel Phenolic Acid/Dipeptide/Borneol Hybrids as Potent Angiotensin Converting Enzyme (ACE) Inhibitors with Anti-hypertension Activity” (Molecules : A Journal of Synthetic Chemistry and Natural …, 2017).

How the values were obtained:
[1] = biological target: T1, angiotensin converting enzyme (ACE) (Oryctolagus cuniculus, UniProt P12822); experiment: In vitro ACE inhibition assay (hippuric acid release from HHL); assay type: biochemical; settings: HHL substrate, pH 8.3, 37 °C, 15 min; five concentrations 0.01–10 µM; read-out: ACE-inhibitory activity IC50
T1 construct: purchased Sigma-aldrich, St. Louis, MO, USA A-6778
T1 sequence (P12822 34-1310): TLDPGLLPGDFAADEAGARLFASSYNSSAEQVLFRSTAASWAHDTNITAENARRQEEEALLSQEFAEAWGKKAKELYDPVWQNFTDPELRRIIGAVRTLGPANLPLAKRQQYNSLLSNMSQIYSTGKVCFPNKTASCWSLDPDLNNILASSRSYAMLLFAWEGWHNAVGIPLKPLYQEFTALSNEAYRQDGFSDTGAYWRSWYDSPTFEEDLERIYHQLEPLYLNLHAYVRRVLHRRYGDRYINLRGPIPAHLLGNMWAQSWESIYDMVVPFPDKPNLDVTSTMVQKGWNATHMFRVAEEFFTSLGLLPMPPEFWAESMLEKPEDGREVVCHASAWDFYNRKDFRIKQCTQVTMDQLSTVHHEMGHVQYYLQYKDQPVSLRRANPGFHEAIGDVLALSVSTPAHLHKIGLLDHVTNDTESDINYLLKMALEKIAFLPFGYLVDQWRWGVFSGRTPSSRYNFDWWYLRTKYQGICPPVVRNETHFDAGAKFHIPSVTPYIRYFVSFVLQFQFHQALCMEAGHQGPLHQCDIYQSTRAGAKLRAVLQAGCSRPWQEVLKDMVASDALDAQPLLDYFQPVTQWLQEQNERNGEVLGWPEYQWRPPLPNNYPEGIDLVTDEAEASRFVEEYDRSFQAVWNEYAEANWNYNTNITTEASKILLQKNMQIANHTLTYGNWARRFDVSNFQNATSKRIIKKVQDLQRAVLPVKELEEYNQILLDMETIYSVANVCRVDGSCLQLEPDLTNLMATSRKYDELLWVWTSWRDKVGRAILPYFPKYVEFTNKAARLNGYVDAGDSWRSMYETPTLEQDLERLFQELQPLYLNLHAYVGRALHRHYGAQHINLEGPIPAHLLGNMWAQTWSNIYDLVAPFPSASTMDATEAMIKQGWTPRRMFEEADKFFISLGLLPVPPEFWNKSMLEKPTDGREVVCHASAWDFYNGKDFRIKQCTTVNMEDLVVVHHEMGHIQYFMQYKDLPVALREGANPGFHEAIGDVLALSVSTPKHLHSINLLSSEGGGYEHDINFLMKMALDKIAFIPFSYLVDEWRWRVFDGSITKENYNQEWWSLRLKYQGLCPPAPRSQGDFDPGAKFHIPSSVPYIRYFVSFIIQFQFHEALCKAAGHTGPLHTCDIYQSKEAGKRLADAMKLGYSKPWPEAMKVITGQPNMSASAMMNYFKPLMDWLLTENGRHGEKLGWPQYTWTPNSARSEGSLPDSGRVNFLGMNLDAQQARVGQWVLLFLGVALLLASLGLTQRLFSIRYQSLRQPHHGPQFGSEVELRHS
Description: The in vitro ACE-inhibitory activity of the newly synthesized compounds was evaluated using ACE inhibition assay (Sigma-aldrich, St. Louis, MO, USA, No. A-6778). The experiments were carried out for all the designed compounds (7a–7h), for ACE-inhibitory activity at five different concentrations (0.01–10 µM). Lisinopril, a well-known ACE inhibitor drug, was used as standard for comparison with the inhibitory activity of synthesized compounds. The ACE-inhibitory activity can be calculated by the following equation: ACE-inhibitory activity (inhibition rate %) = [(Ablank1 − Asample)/(Ablank1 − Ablank2)] × 100, where blank 1: Positive control (without ACE inhibition) and blank 2: Reagent blank. Then we measured and calculated the IC50 values of the designed compounds (7a–7h).
The preliminary biological investigations were conducted in vitro using the ACE-inhibition assay. […] That is, the activity of these compounds gradually declined when the size of the amino acid side chain increased. Besides, the influence of phenolic acids on ACE-inhibitory activity was more obvious following the order: protocatechuic acid > ferulic acid > gallic acid > 3,4-dihydroxybenzene acid. That is, substituents in positions 3 and 4 in the benzene ring are beneficial to the increase of ACE-inhibitory activity. At the same time, the shorter the amino side chain in phenolic acids, the better the ACE-inhibitory activity.

[2] = tested on: spontaneously hypertensive rats (SHRs); experiment: Therapeutic antihypertensive test, 7 consecutive days oral treatment, tail-cuff BP; assay type: in vivo, rat; settings: for Maximum antihypertensive effect compared with lisinopril (20 mg/kg/day): 100 mg/kg daily, oral, 7 days; for Blood pressure during repeated treatment: 100 mg/kg, Po. 7 days
Description: (§1) All the experiments were approved by the Institutional Animal Ethics Committee of Northwest University. Experiments were carried out on spontaneously hypertension rats (SHRs) that were 9–10 weeks old and weighed 200–220 g. SHRs treated with normal saline were used as controls. Lisinopril was used as a standard drug. Blood pressure (BP) was recorded automatically every day by the indirect tail-cuff method using an electrosphygmomanometer (BP-2010A Storage Pressure Meter). […] The BP were measured before and 0.5, 1, 2, 3, 4, 5 and 6 h after a single dose of intragastrical administration of active compounds.
(§2) Figure 4 (A,B), the acute antihypertensive activity of compounds 7a and 7g in spontaneously hypertension rats (SHRs) for single dose administration (dosing time: 0 min); (C) the therapeutic antihypertensive activity of compounds 7a and 7g in SHRs for 7 days treatment (dosing time: 0 day; blood pressure (BP) measured time: 9:30–11:30 am). Data are presented as mean ± SEM, n = 6. The BP was determined with a BP-2010A Storage Pressure Meter. This system measures BP by recording the cuff pressure at which the interrupted blood flow returns to the tail. Before drug administration, training consisted of five sessions over 3 days. The SHRs were placed into a thermostatically controlled Lucite box of the Visitech system BP2010A, and heated on a heated pad maintained at 37 °C for 2 min before BP measurement started. The tail root of SHR was surrounded by an inflatable tubular sleeve, and a pulse electron detector was placed in the root of the tails. Then BP was measured after the computer provided a stable signal. The BP for the session was accepted as the average of five BP readings that were within 10 mm Hg. The average BP values were calculated by employing the ANOVA method.

[3] = tested on: spontaneously hypertensive rats (SHRs); experiment: Acute antihypertensive test, single intragastric dose, tail-cuff BP; assay type: in vivo, rat; settings: for Duration of antihypertensive activity / Reduction in blood pressure (systolic arterial pressure) compared with lisinopril: single oral dose; for Reduction in blood pressure (systolic arterial pressure) compared with lisinopril: same molar dose as lisinopril
Description: as §1, §2

Row | IC50 [1] [µM] | Compound | Maximum antihypertensive effect compared with lisinopril (20 mg/kg/day) [2] | Blood pressure during repeated treatment [2] | Onset of antihypertensive activity after oral treatment [3] [h] | Duration of antihypertensive activity [3] | Reduction in blood pressure (systolic arterial pressure) compared with lisinopril [3]
1 | 6.88 ± 0.85 | COc1cc(/C=C/C(=O)N[C@@H](CC(C)C)C(=O)N2CCC[C@H]2C(=O)OC2CC3CCC2(C)C3(C)C)ccc1O (stereo partly shown) [Compound 7g] | approximately equivalent to that of lisinopril | decreased remarkably on the second day after oral administration | 0.5 | four | slightly better than that of lisinopril
2 | 14 ± 1.84 | CC(C)C[C@H](NC(=O)Cc1ccc(O)c(O)c1)C(=O)N1CCC[C@H]1C(=O)OC1CC2CCC1(C)C2(C)C (stereo partly shown) [Compound 7f] |  |  |  |  | 
3 | 13.9 ± 1.61 | CC(C)[C@H](NC(=O)Cc1ccc(O)c(O)c1)C(=O)N1CCC[C@H]1C(=O)OC1CC2CCC1(C)C2(C)C (stereo partly shown) [Compound 7b] |  |  |  |  | 
4 | 13.2 ± 2.47 | CC(C)C[C@H](NC(=O)c1cc(O)c(O)c(O)c1)C(=O)N1CCC[C@H]1C(=O)OC1CC2CCC1(C)C2(C)C (stereo partly shown) [Compound 7h] |  |  |  |  | 
5 | 6.76 ± 0.96 | CC(C)[C@H](NC(=O)c1ccc(O)c(O)c1)C(=O)N1CCC[C@H]1C(=O)OC1CC2CCC1(C)C2(C)C (stereo partly shown) [Compound 7a] | approximately equivalent to that of lisinopril | decreased remarkably on the second day after oral administration | 0.5 | four | slightly better than that of lisinopril
6 | 10.6 ± 1.72 | CC(C)C[C@H](NC(=O)c1ccc(O)c(O)c1)C(=O)N1CCC[C@H]1C(=O)OC1CC2CCC1(C)C2(C)C (stereo partly shown) [Compound 7e] |  |  |  |  | 
7 | 11.9 ± 1.82 | COc1cc(/C=C/C(=O)N[C@H](C(=O)N2CCC[C@H]2C(=O)OC2CC3CCC2(C)C3(C)C)C(C)C)ccc1O (stereo partly shown) [Compound 7c] |  |  |  |  | 
8 | 13.5 ± 2.02 | CC(C)[C@H](NC(=O)c1cc(O)c(O)c(O)c1)C(=O)N1CCC[C@H]1C(=O)OC1CC2CCC1(C)C2(C)C (stereo partly shown) [Compound 7d] |  |  |  |  | 

Row | Compound | IC50 [1] [µM] | Maximum antihypertensive effect compared with lisinopril (20 mg/kg/day) [2] | Blood pressure during repeated treatment [2] | Onset of antihypertensive activity after oral treatment [3] [h] | Duration of antihypertensive activity [3] | Reduction in blood pressure (systolic arterial pressure) compared with lisinopril [3]
9 | NCCCC[C@H](N[C@@H](CCc1ccccc1)C(=O)O)C(=O)N1CCC[C@H]1C(=O)O [Lisinopril, reference compound] | < 0.01 |  |  |  |  | 
